The values below come from US9745321B2, “Fused pyrimidine compound, intermediate, preparation method therefor, and composition and application thereof” (SHANGHAI YINGLI PHARMACEUTICAL CO., LTD, priority 2013, dated 2017).

Test [1] has as its target PI3Kα (Homo sapiens (Human), UniProt P42336). Description: PI3Kα enzyme activity inhibition IC50 evaluation assay. In kind it is biochemical. To be noted: ratio PI3Kα vs PI3Kδ. The procedure: (§1) PI3Kα, PI3Kδ, PI3Kβ and PI3Kγ Enzyme Activity Inhibition IC50 Evaluation Assay
(§2) • 1. Buffer preparation: 50 mM HEPES, pH 7.5, 3 mM MgCl2, 1 mM EGTA, 100 mM NaCl, 0.03% CHAPS. • 2. Compound was formulated in 100% DMSO in a concentration gradient, and added to a 384-well plate to a final DMSO concentration of 1%. • 3. PI3Kα, PI3Kδ, PI3Kβ and PI3Kγ enzymes were diluted to an optimum concentration with the following buffer: 50 mM HEPES, pH 7.5, 3 mM MgCl2, 1 mM EGTA, 100 mM NaCl, 0.03% CHAPS, 2 mM DTT, and transferred to a 384-well plate and incubated with the compound for a certain time. • 4. Substrate was diluted to an optimum concentration with the following buffer: 50 mM HEPES, pH 7.5, 3 mM MgCl2, 1 mM EGTA, 100 mM NaCl, 0.03% CHAPS, 2 mM DTT, 50 μM PIP2, 25 μM ATP; then added to a 384-well plate to initiate the reaction, and for PI3Kα, PI3Kβ and PI3Kγ at room temperature reacted for 1 hr, for PI3Kδ at room temperature reacted for 2 hrs. For PI3Kβ and PI3Kγ, it was still necessary to further add 10 μL ADP-Glo Detection Reagent, and then equilibrated at room temperature for 30 minutes. • 5. Read Luminescense with FlexStation, and calculate the inhibition rate as the average of two tests.

The target of test [2] is PI3Kδ (Homo sapiens (Human), UniProt O00329). Description: PI3Kδ enzyme activity inhibition IC50 evaluation assay. The test is classed as biochemical. To be noted: luminescence, 25 μM ATP, 50 μM PIP2, 2 hrs room temperature. The procedure: as §1
as §2, with “Substrate was diluted to an optimum concentration with the following buffer: 50 mM HEPES, pH 7.5, 3 mM MgCl2, 1 mM EGTA, 100 mM NaCl, 0.03% CHAPS, 2 mM DTT, 50 μM PIP2, 25 μM ATP; then added to a 384-well plate to initiate the reaction, and for PI3Kα, PI3Kβ and PI3Kγ at room temperature reacted for 1 hr, for PI3Kδ at room temperature reacted for 2 hrs.” left out

Structures are written as SMILES.

Sequence of PI3Kδ (O00329 whole entry): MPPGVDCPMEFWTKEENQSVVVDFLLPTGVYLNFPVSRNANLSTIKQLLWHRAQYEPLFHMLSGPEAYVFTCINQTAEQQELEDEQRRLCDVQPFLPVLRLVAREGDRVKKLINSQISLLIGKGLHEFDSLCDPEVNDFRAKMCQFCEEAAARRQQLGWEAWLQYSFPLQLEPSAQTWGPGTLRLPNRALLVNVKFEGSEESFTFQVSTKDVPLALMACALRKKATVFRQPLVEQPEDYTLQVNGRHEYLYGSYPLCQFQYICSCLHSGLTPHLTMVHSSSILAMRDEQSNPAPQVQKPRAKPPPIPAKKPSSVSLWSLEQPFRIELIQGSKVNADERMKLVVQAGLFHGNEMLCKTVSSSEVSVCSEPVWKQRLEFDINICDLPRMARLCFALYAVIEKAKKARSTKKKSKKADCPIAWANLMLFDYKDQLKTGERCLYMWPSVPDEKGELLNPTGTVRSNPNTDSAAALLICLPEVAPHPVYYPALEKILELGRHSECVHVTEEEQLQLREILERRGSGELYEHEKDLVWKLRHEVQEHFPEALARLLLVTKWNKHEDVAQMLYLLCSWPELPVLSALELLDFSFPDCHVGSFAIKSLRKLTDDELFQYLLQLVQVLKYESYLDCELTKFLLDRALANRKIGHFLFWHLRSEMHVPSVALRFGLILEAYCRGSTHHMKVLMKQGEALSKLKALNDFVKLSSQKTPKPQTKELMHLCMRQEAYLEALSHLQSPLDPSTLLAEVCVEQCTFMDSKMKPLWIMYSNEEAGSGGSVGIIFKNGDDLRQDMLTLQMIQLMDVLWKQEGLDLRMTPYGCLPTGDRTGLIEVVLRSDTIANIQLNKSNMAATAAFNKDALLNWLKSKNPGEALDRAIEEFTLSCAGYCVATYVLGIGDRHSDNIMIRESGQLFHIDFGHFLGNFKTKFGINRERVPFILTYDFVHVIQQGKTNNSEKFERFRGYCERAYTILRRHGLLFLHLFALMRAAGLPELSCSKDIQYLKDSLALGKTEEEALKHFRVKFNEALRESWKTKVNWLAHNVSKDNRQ
Sequence of PI3Kδ (P27986 whole entry partner): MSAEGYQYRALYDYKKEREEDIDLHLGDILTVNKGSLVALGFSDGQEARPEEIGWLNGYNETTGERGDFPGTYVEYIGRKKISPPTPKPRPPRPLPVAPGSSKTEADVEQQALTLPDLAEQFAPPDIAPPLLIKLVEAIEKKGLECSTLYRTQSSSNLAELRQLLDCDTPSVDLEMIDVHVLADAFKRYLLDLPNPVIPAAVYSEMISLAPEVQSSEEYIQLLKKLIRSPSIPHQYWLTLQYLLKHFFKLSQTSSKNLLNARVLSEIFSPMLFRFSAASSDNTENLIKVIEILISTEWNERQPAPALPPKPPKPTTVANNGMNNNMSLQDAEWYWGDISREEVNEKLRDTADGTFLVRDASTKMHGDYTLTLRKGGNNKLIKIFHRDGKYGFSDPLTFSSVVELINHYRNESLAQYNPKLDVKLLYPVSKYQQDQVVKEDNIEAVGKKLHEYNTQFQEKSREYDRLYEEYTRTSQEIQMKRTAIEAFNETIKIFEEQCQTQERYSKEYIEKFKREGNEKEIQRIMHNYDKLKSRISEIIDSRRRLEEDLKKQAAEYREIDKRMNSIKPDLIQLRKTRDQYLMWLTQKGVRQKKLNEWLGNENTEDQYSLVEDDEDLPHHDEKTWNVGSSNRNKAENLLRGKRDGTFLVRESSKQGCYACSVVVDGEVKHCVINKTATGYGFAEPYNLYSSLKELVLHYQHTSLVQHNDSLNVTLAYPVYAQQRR
Sequence of PI3Kα (P42336 whole entry): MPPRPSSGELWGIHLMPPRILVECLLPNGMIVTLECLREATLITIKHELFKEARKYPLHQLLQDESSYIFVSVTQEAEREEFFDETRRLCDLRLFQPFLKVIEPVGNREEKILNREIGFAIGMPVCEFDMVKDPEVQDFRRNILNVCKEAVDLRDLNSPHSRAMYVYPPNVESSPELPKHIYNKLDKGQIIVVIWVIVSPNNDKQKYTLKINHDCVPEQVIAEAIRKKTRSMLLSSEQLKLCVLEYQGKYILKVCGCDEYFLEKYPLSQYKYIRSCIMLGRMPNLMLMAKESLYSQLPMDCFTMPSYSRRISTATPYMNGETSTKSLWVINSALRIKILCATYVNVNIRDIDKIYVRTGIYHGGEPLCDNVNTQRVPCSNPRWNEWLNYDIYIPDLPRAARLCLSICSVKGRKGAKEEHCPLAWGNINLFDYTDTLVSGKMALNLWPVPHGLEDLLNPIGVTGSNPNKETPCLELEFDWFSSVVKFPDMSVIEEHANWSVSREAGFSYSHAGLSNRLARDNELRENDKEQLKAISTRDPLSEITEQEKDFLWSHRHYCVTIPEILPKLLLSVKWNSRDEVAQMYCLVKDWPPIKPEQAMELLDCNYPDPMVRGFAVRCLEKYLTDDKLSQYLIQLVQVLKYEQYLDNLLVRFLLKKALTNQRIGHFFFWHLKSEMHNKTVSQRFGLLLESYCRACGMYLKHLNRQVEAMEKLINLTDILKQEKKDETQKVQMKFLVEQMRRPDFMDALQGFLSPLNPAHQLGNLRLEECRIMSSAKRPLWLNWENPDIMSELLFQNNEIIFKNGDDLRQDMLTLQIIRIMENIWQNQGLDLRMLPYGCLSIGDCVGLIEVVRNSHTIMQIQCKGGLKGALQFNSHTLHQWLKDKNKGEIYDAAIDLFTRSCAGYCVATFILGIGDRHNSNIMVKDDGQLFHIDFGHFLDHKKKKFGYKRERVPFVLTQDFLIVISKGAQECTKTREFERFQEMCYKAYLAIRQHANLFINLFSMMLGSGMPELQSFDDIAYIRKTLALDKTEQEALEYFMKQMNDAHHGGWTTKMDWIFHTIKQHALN
Sequence of PI3Kα (P27986 whole entry partner): as the sequence (P27986 whole entry partner) above

On to `COc1ncc(-c2nc(N3CCOCC3)nc3c(CN4CCC(N(C)C(C)C)CC4)csc23)cc1NS(C)(=O)=O` [Compound 58], for which the α/δ selectivity in test [1] came out at 150. For the same compound, in test [2], the IC50 (as a rule, the concentration that inhibits the measured activity by half) turned out to be 5.4 nM.

For `COc1ncc(-c2nc(N3CCOCC3)nc3c(CN4CCN(S(C)(=O)=O)CC4)c(C)sc23)cc1NS(C)(=O)=O` [Compound 61], the α/δ selectivity in test [1] is reported as 12. The compound further gave an IC50 in test [2] of 4.7 nM.

Consider `COc1ncc(-c2nc(N3CCOCC3)nc3c(CN4CCN(C(=O)C(F)(F)F)CC4)csc23)cc1NS(C)(=O)=O` [Compound 62], for which, in test [1], the α/δ selectivity came out at 104. Moreover, the IC50 in test [2] was 5.6 nM.

As to `COc1ncc(-c2nc(N3CCOCC3)nc3c(CN4CCN(C(=O)NCC(F)(F)F)CC4)csc23)cc1NS(C)(=O)=O` [Compound 63], the α/δ selectivity in test [1] came out at 27. It took 12 nM to reach half-maximal inhibition in test [2] (IC50).

Regarding `COc1ncc(-c2nc(N3CCOCC3)nc3c(CN4CCN(CC(F)(F)F)CC4)csc23)cc1NS(C)(=O)=O` [Compound 64], in test [1], the α/δ selectivity stood at 110. In test [2], this compound came in with an IC50 of 9.1 nM.

For `COc1ncc(-c2nc(N3CCOCC3)nc3c(CN4CCN(C(C)(C)C)CC4)csc23)cc1NS(=O)(=O)C1CC1` [Compound 67], the α/δ selectivity in test [1] turned out to be 195. The compound also had an IC50 in test [2] of 3.6 nM.

With `COc1ncc(-c2nc(N3CCOCC3)nc3c(CN4CCN(C)CC4)csc23)cc1NS(=O)(=O)c1ccc(F)cc1F` [Compound 68], the α/δ selectivity in test [1] is listed as 19. Further, the IC50 in test [2] was found to be 71 nM.

On to `COc1ncc(-c2nc(N3CCOCC3)nc3c(CN4CCN(C)CC4)csc23)cc1NS(=O)(=O)C1CC1` [Compound 69], for which the α/δ selectivity in test [1] came out at 79. Inhibition in test [2] was half-maximal at 31 nM (IC50).

Regarding `CCS(=O)(=O)Nc1cc(-c2nc(N3CCOCC3)nc3c(CN4CCN(C)CC4)csc23)cnc1OC` [Compound 70], in test [1], the α/δ selectivity was determined as 87. The IC50 in test [2] amounted to 23 nM.

As for `COc1ncc(-c2nc(N3CCOCC3)nc3c(CN4CCN(C)CC4)csc23)cc1NS(=O)(=O)N(C)C` [Compound 72], in test [1], the α/δ selectivity was found to be 29. In test [2], this compound displayed an IC50 of 60 nM.

Take `COc1ncc(-c2nc(N3CCOCC3)nc3c(CN4CCN(C(=O)[C@@H](C)O)CC4)c(C)sc23)cc1NS(C)(=O)=O` [Compound 73]: in test [1], the α/δ selectivity was found to be 18. The compound also had an IC50 in test [2] of 4.4 nM.

Consider `COc1ncc(-c2nc(N3CCOCC3)nc3c(CN4CCN(C(=O)[C@H](C)O)CC4)c(C)sc23)cc1NS(C)(=O)=O` [Compound 74], for which the α/δ selectivity in test [1] is given as 13. The compound also came in with an IC50 in test [2] of 4.4 nM.

As to `CN1CCN(Cc2csc3c(-c4cncc(NS(C)(=O)=O)c4)nc(N4CCOCC4)nc23)CC1` [Compound 75], the α/δ selectivity in test [1] was determined as 19. Moreover, in test [2], 31 nM corresponded to half-maximal inhibition (IC50).

Take `CCNC(=O)C1CCN(Cc2csc3c(-c4cnc(OC)c(NS(C)(=O)=O)c4)nc(N4CCOCC4)nc23)CC1` [Compound 76]: in test [1], the α/δ selectivity came to 60. Further, the IC50 in test [2] stood at 7.3 nM.

Regarding `COc1ncc(-c2nc(N3CCOCC3)nc3c(CN4CCN(C5CC(C)OC(C)C5)CC4)csc23)cc1NS(C)(=O)=O` (centres unmarked) [Compound 77], the α/δ selectivity in test [1] is listed as 52. For the same compound, the IC50 in test [2] amounted to 7.1 nM.

In the case of `COc1ncc(-c2nc(N3CCOCC3)nc3c(CN4CCC(C(C)(C)F)CC4)c(C)sc23)cc1NS(=O)(=O)C1CC1` [Compound 80], in test [1], the α/δ selectivity is greater than 256. Moreover, in test [2], half-maximal inhibition (IC50) required 39 nM.

On to `CNC1CCN(Cc2c(C)sc3c(-c4cnc(OC)c(NS(C)(=O)=O)c4)nc(N4CCOCC4)nc23)CC1` [Compound 92], for which the α/δ selectivity in test [1] came out at 42. Besides, the IC50 in test [2] turned out to be 71 nM.

Regarding `COc1ncc(-c2nc(N3CCOCC3)nc3c(CN4CCC(N(C)C)CC4)c(C)sc23)cc1NS(C)(=O)=O` [Compound 93], the α/δ selectivity in test [1] was 82. This compound displayed an IC50 in test [2] of 10 nM.

For the compound `COc1ncc(-c2nc(N3CCOCC3)nc3c(CN(C)C)c(C)sc23)cc1NS(C)(=O)=O` [Compound 94], in test [1], the α/δ selectivity came to 31. Also, it took 32 nM to reach half-maximal inhibition in test [2] (IC50).

`COc1ncc(-c2nc(N3CCOCC3)nc3c(CN4CCNCC4)c(C)sc23)cc1NS(C)(=O)=O` [Compound 96]: the α/δ selectivity in test [1] came out at 64. Moreover, 31 nM corresponded to half-maximal inhibition in test [2] (IC50).

On to `COc1ncc(-c2nc(N3CCOCC3)nc3cc(C)sc23)cc1NS(C)(=O)=O` [Compound 97], for which the α/δ selectivity in test [1] is given as 10. Also, half-maximal inhibition in test [2] (IC50) was put at 190 nM.

For `COc1ncc(-c2nc(N3CCOCC3)nc3c(CN4CCOCC4)c(C)sc23)cc1NS(C)(=O)=O` [Compound 98], in test [1], the α/δ selectivity is 30. The IC50 in test [2] stood at 12 nM.

Turning to `COc1ncc(-c2nc(N3CCOCC3)nc3c(CN4CCC(F)CC4)c(C)sc23)cc1NS(C)(=O)=O` [Compound 105], in test [1], the α/δ selectivity came to 77. In addition, half-maximal inhibition in test [2] (IC50) was put at 31 nM.

Take `COc1ncc(-c2nc(N3CCOCC3)nc3c(CN4CCC(=O)CC4)c(C)sc23)cc1NS(C)(=O)=O` [Compound 107]: the α/δ selectivity in test [1] came to 45. Moreover, the IC50 in test [2] was determined as 11 nM.

Turning to `COC(=O)C1CCN(Cc2c(C)sc3c(-c4cnc(OC)c(NS(C)(=O)=O)c4)nc(N4CCOCC4)nc23)CC1` [Compound 111], in test [1], the α/δ selectivity worked out at 301. This compound also returned an IC50 in test [2] of 6.5 nM.

As to `COc1ncc(-c2nc(N3CCOCC3)nc3c(CN4CCS(=O)(=O)CC4)c(C)sc23)cc1NS(C)(=O)=O` [Compound 113], in test [1], the α/δ selectivity came to 27. Also, in test [2], the IC50 came to 6.6 nM.

`COC(=O)N1CCN(Cc2c(C)sc3c(-c4cnc(OC)c(NS(C)(=O)=O)c4)nc(N4CCOCC4)nc23)CC1` [Compound 114]: in test [1], the α/δ selectivity was 44. In test [2], this compound registered an IC50 of 5 nM.

On to `COc1ncc(-c2nc(N3CCOCC3)nc3c(CN4CCC5(CC4)COC5)c(C)sc23)cc1NS(C)(=O)=O` [Compound 115], for which, in test [1], the α/δ selectivity came to 67. The compound also came in with a half-maximal inhibitory concentration (IC50) in test [2] of 13 nM.

As for `COc1ncc(-c2nc(N3CCOCC3)nc3c(CN4CCn5cnnc5C4)c(C)sc23)cc1NS(C)(=O)=O` [Compound 116], the α/δ selectivity in test [1] is recorded as 57. Besides, the IC50 in test [2] is 4.3 nM.

With `COc1ncc(-c2nc(N3CCOCC3)nc3c(CN4CCC(CO)CC4)c(C)sc23)cc1NS(C)(=O)=O` [Compound 117], in test [1], the α/δ selectivity is recorded as 213. This compound also registered an IC50 in test [2] of 7.2 nM.

As for `COc1ncc(-c2nc(N3CCOCC3)nc3c(CN4CCC(C(C)(C)O)CC4)c(C)sc23)cc1NS(=O)(=O)C(F)(F)F` [Compound 118], the α/δ selectivity in test [1] is 92. In test [2], it took 2.6 nM to reach half-maximal inhibition (IC50).

Turning to `COc1ncc(-c2nc(N3CCOCC3)nc3c(CN4CCN(C(C)(C)CO)CC4)c(C)sc23)cc1NS(C)(=O)=O` [Compound 119], the α/δ selectivity in test [1] was determined as 84. The compound also registered an IC50 in test [2] of 5 nM.

As to `Cc1sc2c(-c3cnc(Cl)c(NS(C)(=O)=O)c3)nc(N3CCOCC3)nc2c1CN1CCC(C(C)(C)O)CC1` [Compound 120], the α/δ selectivity in test [1] was found to be 24. Also, inhibition in test [2] was half-maximal at 5 nM (IC50).

`CCN(CC)C1CN(Cc2c(C)sc3c(-c4cnc(OC)c(NS(C)(=O)=O)c4)nc(N4CCOCC4)nc23)C1` [Compound 122]: the α/δ selectivity in test [1] turned out to be 172. Further, the IC50 in test [2] was 9 nM.

For the compound `COc1ncc(-c2nc(N3CCOCC3)nc3c(CN4CCC(N5CCCC5)C(F)(F)C4)c(C)sc23)cc1NS(C)(=O)=O` (centres unmarked) [Compound 123], the α/δ selectivity in test [1] stood at 175. In test [2], this compound had an IC50 of 6.8 nM.

Turning to `COc1ncc(-c2nc(N3CCOCC3)nc3c(CN4CCC(N5CCC[C@H]5C(F)(F)F)CC4)c(C)sc23)cc1NS(C)(=O)=O` [Compound 124], the α/δ selectivity in test [1] was 430. The same compound returned an IC50 in test [2] of 3.1 nM.

For `COc1ncc(-c2nc(N3CCOCC3)nc3c(CN4CCC(N5CCC[C@H]5C)CC4)c(C)sc23)cc1NS(C)(=O)=O` [Compound 125], in test [1], the α/δ selectivity was 239. The same compound gave an IC50 in test [2] of 2.6 nM.

For the compound `COc1ncc(-c2nc(N3CCOCC3)nc3c(CN4CCC(N5CCC(F)CC5)CC4)c(C)sc23)cc1NS(C)(=O)=O` [Compound 128], the α/δ selectivity in test [1] was determined as 223. In test [2], this compound registered an IC50 of 6 nM.

Consider `COc1ncc(-c2nc(N3CCOCC3)nc3c(CN4CC[C@H](N5CCCC5)C4)c(C)sc23)cc1NS(C)(=O)=O` [Compound 129], for which, in test [1], the α/δ selectivity is recorded as 100. For the same compound, in test [2], 19 nM corresponded to half-maximal inhibition (IC50).

In the case of `COc1ncc(-c2nc(N3CCOCC3)nc3c(CN4CC[C@@H](N5CCCC5)C4)c(C)sc23)cc1NS(C)(=O)=O` [Compound 130], in test [1], the α/δ selectivity stood at 273. The compound further returned an IC50 in test [2] of 6.7 nM.
